In one data set the test system is HDAC-1 protein. The experiment in a line: Western blotting analysis of HDAC-1 protein expression in transfected T24 cells. It is filed as cell-based, human. As to conditions: FIG. 4; second generation oligonucleotides, T24 cells transfected twice with 50 nM, lysates 24 h after second transfection. As to the method: (§1) To do this, T24 cells were transfected with oligonucleotide using lipofectin as described above. Twenty-four hours later, the cells were lysed according to standard procedures. The whole cell extracts (50 μg) were resolved on 7-15% gradient SDS/PAGE, transferred to PVDF membrane (Amersham, Arlington Heights, Ill.), and subjected to Western blotting analysis with rabbit polyclonal HDAC1- and HDAC-2 specific antibodies (1:500, Santa Cruz Biotech., Santa Cruz, Calif.) were used. Detection was accomplished with a secondary anti-rabbit IgG-HR peroxidase antibody and an enhanced chemiluminescence detection kit (Amersham) accordingly to manufacturer's instructions.
T24 cells were transfected twice as described above with 50 nM oligonucleotide. Cell lysates were prepared twenty-four hours following the second transfection, resolved on 7-15% gradient SDS-PAGE, and transferred to PVDF membrane. The PVDF membrane blot was first blotted with anti-HDAC-1 antibody. Following detection with horseradish peroxidase-labelled secondary antibody and enhanced chemiluminescence, the blot was stripped, and re-probed with anti-HDAC-2 antibody. Following detection, the blot was stripped for a second time and re-probed with an actin-specific antibody to verify equal protein loading in the lanes.

A further data set concerns HDAC-2 protein. The experiment in a line: Western blotting analysis of HDAC-2 protein expression in transfected T24 cells. It is filed as cell-based, human. Conditions: FIG. 3; 50 nM second generation oligonucleotide, T24 cells transfected twice, 48 hours after the first transfection. The procedure:
as §1
Twenty-four hours later, the cells were transfected a second time with the same amount of the same oligonucleotide. Twenty-four hours after this (i.e., 48 hours after the first transfection), cellular proteins were prepared, resolved on 7-15% gradient SDS-PAGE, and subjected to Western blotting analysis as described in Example 1 with rabbit polyclonal HDAC2 specific antibody (1:500, Santa Cruz Biotech). Following blotting with the secondary anti-rabbit IgG-HR peroxidase antibody and visualization with the enhanced chemiluminescence detection kit (Amersham), the blot was stripped and re-probed with an antibody specific to actin to verify equal loading of all wells (data not shown). […]
A general note: In western blotting, separated proteins are transferred to a membrane and probed.

The test system of data set [1] is cell cycle progression in cells. Conditions: literature reports; cited from earlier work.
Another data set has as its system histone deacetylase. Conditions: Yoshida et al.; cited from earlier work.

Where a SMILES comes first, the peptide text is derived from it. [ ]: non-standard residue; d: D form. Aoe = N[C@@H](CCCCCC(=O)[C@@H]1CO1)C(=O)O; d = 2'-deoxy (DNA); m = 2'-O-methyl

The values below come from patent US20070105808A1, “Inhibition of histone deacetylase” (MethylGene, Inc., priority 1999, published 2007).

For “5′-CAAUCGTCAGAGACTCCGAA-3′ (antisense CAAUCGTCAGAGACTCCGAA; sugars from the 5' end m4 d12 m4, backbone and methylation of C not given here) [MG2609, mismatch control oligonucleotide of HDAC-1 (MG2608)]”, the “inhibition of HDAC-1 protein expression” value in the data set on HDAC-1 protein is “failed to inhibit”.

With “5′-CUCCTTGACTGTACGCCAUG-3′ [MG2636]”, the “inhibition of HDAC-2 protein expression” value in the data set with HDAC-2 protein is “able to inhibit HDAC-2 protein expression”.

For `C/C=C1\NC(=O)[C@H]2CSSCC/C=C/[C@H](CC(=O)N[C@H](C(C)C)C(=O)N2)OC(=O)[C@H](C(C)C)NC1=O` [FR901228], the cell cycle progression result in data set [1] was “inhibit cell cycle progression in cells”.

Consider `CC(/C=C/C(=O)NO)=C\[C@@H](C)C(=O)c1ccc(N(C)C)cc1` [Trichostatin A], for which the cell cycle progression entry in data set [1] is “arrest cell cycle progression in cells in the G1 and G2 phases”. Besides, the “inhibition of histone deacetylase activity” value in the data set on histone deacetylase is given as “inhibit histone deacetylase activity”.

As to `O=C(CCCCCCC(=O)Nc1ccccc1)NO` [suberoylanilide hydroxamic acid], the cell cycle progression result in data set [1] is listed as “inhibit cell cycle progression in cells”.

For the compound `O=C1N[C@@H](Cc2ccccc2)C(=O)N2CCC[C@@H]2C(=O)N[C@@H](CCCCCC(=O)[C@@H]2CO2)C(=O)N[C@H]1Cc1ccccc1` [trapoxin] (cyclo(FF[dP][Aoe])), in data set [1], the cell cycle progression entry was “inhibit cell cycle progression in cells”.

Take `CC(/C=C/C(=O)NO[C@@H]1O[C@H](CO)[C@@H](O)[C@H](O)[C@H]1O)=C\[C@@H](C)C(=O)c1ccc(N(C)C)cc1` [trichostatin C]: the cell cycle progression result in data set [1] is “inhibit cell cycle progression in cells”.

With depudecin, in data set [1], the cell cycle progression result is given as “inhibit cell cycle progression in cells”.
